Experimental data from patent US20240066137A1, “NOVEL PROTEIN CONJUGATE, AND USE THEREOF FOR PREVENTING OR TREATING NONALCOHOLIC STEATOHEPATITIS, OBESITY AND DIABETES” (ONEGENE BIOTECHNOLOGY INC., priority 2020, published 2024).
Read-outs that look alike come from different tables or passages of the source.

Tests used:
[1] = tested on: C57BL/6J mice in which fatty liver was induced by feeding MCD; assay: In-vivo efficacy against non-alcoholic steatohepatitis (MCD diet mice); parameters: species or system mouse; ALT / Hepatic TGF-β / Hepatic Triglyceride: unit not given here; settings: for ALT: dulaglutide 2 nmol/kg s.c. 1 time/2 days, 14 times; for Hepatic TGF-β: liver tissue ELISA; for Hepatic Triglyceride / Lobular inflammation score (Lobular inflammation) / NAS (NAFLD Activity Score) / Steatosis score (Steatosis): liver tissue
Description: The MCD mouse model is the most typically used method for efficacy testing against non-alcoholic steatohepatitis, and it is known that the histological appearance of the induced liver tissue from week 2 to week 4 is histologically similar to that of human non-alcoholic steatohepatitis. There are many precedent cases in which a number of pharmaceutical companies and academia conducted tests with various substances.
Fatty liver was induced by feeding MCD to male C57BL/6J mice for 8 weeks, and then the mice were divided into 6 groups shown in Table 7 below, and drug administration was performed for 4 weeks. As a comparative substance, two currently commercially available drugs, liraglutide (Saxenda) and dulaglutide (Trulycity), were used. The administered composition was repeatedly administered subcutaneously using a disposable syringe according to each administration cycle. […] The normal control group was fed with MCS (Methionine and Choline Sufficient L-Amino Acid Diet).
During the 4-week administration period, general symptoms and behavior were observed, and body weight was measured once a week after the start of administration and on the day of tissue extraction. Blood collection and liver tissue extraction were performed on the day of the end of observation, and blood was subjected to a hematological-biochemical test, and the extracted liver tissue was subjected to a histopathological test.
Alanine aminotransferase (ALT), which is used as the most basic indicator of liver disease, was measured through a hematological-biochemical test, and the results are shown in Table 8 below and FIG. 21.
In addition, histopathological test was performed by observation through H&E and Masson's trichrome staining, and the results are shown in FIG. 23. In the case of non-alcoholic steatohepatitis, steatosis and inflammation in lobules occurs, and inflammatory cells can be identified by tissue staining.
In addition, based on the evaluation criteria shown in Table 10 below, steatosis score, lobular inflammation score, and NAS (NAFLD activity score) were evaluated.
In addition, triglyceride accumulation in the liver tissue was analyzed using the Triglyceride Assay Kit, and the results are shown in Table 15 below and FIG. 28.
The mice were divided into 4 groups shown in Table 16 below, and the experiment was conducted in the same manner as in Test Example 4 above. As a comparative substance, the currently commercially available dulaglutide (Trulycity) was used.

[2] = biological target: GLP-1R (GLP-1 acceptor) (Homo sapiens, UniProt P43220); assay: cAMP accumulation assay, GLP-1 acceptor overexpressing cells
Sequence of GLP-1R (GLP-1 acceptor) (P43220 24-463): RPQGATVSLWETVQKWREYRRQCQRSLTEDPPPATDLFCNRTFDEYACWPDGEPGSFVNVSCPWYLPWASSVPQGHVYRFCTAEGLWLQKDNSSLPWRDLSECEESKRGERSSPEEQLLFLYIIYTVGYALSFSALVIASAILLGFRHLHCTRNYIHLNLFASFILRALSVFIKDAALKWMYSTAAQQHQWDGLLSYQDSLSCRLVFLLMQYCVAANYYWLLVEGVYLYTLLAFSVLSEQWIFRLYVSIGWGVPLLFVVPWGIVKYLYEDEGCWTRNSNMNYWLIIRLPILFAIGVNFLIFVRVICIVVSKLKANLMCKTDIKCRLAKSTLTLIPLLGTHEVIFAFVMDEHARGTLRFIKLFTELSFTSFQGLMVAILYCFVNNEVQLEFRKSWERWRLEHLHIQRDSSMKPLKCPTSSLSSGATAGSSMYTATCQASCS

[3] = biological target: NF-κB activity by IL-1β; assay: NF-κB reporter gene luciferase assay; format: cell-based; settings: IL-1β stimulated
Experimental: The cells were cultured to 70-80% full in a T-75 flask. The medium was removed and washed once with 5 mL of the pre-warmed PBS. PBS was removed, and 1 mL of TryPLE Express was added, and incubated for 5 minutes in an incubator at 37° C. and 5% CO2, and the cells were detached. It was mixed with 4 mL of assay medium (10% FBS, 1% antibiotic in DMEM), and the mixture was transferred to a 15 mL tube, centrifuged at 1,000 rpm for 3 minutes, and then again released in 5 mL of assay medium. The number of cells was counted, and the concentration was allowed to be 500,000 cells/mL. It was transferred to a reservoir, and 40 μL per well was dispensed into a white 96-well half-area cell culture plate using a multi-channel pipette (20,000 cells/well). Only 40 μL of assay medium was dispensed into the blank well. The cells were incubated in an incubator at 37° C. and 5% CO2 for 24 hours to allow to be attached.
5 μL of each of the reference (10×) and sample (10×) prepared by 4-fold serial dilution was dispensed in duplicate. Thereafter, 5 μL of 50 pM IL-1β (10×) was dispensed and incubated in an incubator at 5% CO2 for 4 hours. 50 μL of ONE-Glo reagent (Promega, Cat. No. E6120) was each dispensed and cultured at room temperature for 5 minutes, and then the luminescence was measured with a Synergy Neo2 instrument. At this time, before treatment with ONE-Glo reagent, the plate was removed from the incubator for 15 minutes and allowed to reach room temperature.
The Delta RLU (relative luminescence unit) (ΔRLU) was calculated as follows.
ΔRLU=RLUsample−RLUblank=Signal−background luminescence
The IC50 values were obtained as ΔRLU by each concentration using GraphPad Prism 8, as follows (curve-fitting of the log (antagonist) vs. normalized response−variable slope equation).
In order to test the ability of the native IL-1RA and the IL-1RA analogue to inhibit NF-κB activity by IL-1β at the cellular level (in vitro), the NF-κB reporter gene luciferase assay was performed in the same manner as in Test Example 3.

[4] = Test Example 4, dulaglutide 2 nmol/kg
[5] = Test Example 5, dulaglutide 2 nmol/kg

For Dulaglutide [reference compound], which ALT ([1]; Test Example 4, blood) is on record?
Its ALT is 220.5.

What about the “Hepatic TGF-β” value [1, 4] of the same substance?
The value was 159.60.

And the “Hepatic Triglyceride” value [1, 4]?
Its value is 40.78.

What about the “Lobular inflammation score (Lobular inflammation)” value [1, 4] of the same substance?
The value was 1.5.

What about the “NAS (NAFLD Activity Score)” value [1, 4] of the same substance?
Its value is 3.4.

And the “Steatosis score (Steatosis)” value [1, 4]?
The value was 1.9.

And the AST/ALT value ([1]; Test Example 5, blood, dulaglutide 2 nmol/kg)?
The AST/ALT value was 0.76.

What about the ALT ([1]; Test Example 5, blood) of the same substance?
Its ALT is 246.8.

What about the “Hepatic TGF-β” value [1, 5] of the same substance?
The value was 165.3.

What about the “Hepatic Triglyceride” value [1, 5] of the same substance?
The value was 36.08.

And the “Lobular inflammation score (Lobular inflammation)” value [1, 5]?
The value was 1.6.

And the “NAS (NAFLD Activity Score)” value [1, 5]?
The value was 3.4.

What about the “Steatosis score (Steatosis)” value [1, 5] of the same substance?
The value was 1.8.

What about the EC50 ([2]; Test Example 9 screening, Cell line: Stable) of the same substance?
Its EC50 is 0.00145 ± 0.00045 nM.

What about the EC50 ([2]; read-out: EC50 GLP-1R, 1, Test Example 1, run 1) of the same substance?
Its EC50 is 0.00123 nM.

What about the EC50 ([2]; read-out: EC50 GLP-1R, Mean, Test Example 1, mean of 2 runs) of the same substance?
The EC50 was 0.00107 nM.

rhIL-1RA: native IL-1RA, SEQ ID NO: 27 was tested. Which IC50 ([3]; Test Example 3, mean of 4 runs, read-out: IC50, Mean) did it give?
The IC50 was 0.0475 nM.

And the IC50 ([3]; Test Example 3, run 1, read-out: IC50, 1)?
Its IC50 is 0.0399 nM.

What about the IC50 ([3]; Test Example 3, run 2, read-out: IC50, 2) of the same substance?
The IC50 was 0.0515 nM.

And the IC50 ([3]; Test Example 3, run 3, read-out: IC50, 3)?
The IC50 was 0.0466 nM.

And the IC50 ([3]; Test Example 3, run 4, read-out: IC50, 4)?
Its IC50 is 0.0519 nM.

And the IC50 ([3]; Test Example 9 screening, read-out: IC50)?
Its IC50 is 0.0686 ± 0.00771 nM.
